Where two headings read alike, the source gives them in different places.
Columns and labels:
[1] = Sorafenib metabolism/clearance in cultured cells, LC-MS/MS; assay type: in vitro ADME; settings: human
Procedure: (§1) After incubation with sorafenib was complete, the medium containing sorafenib was discarded and replaced with normal DMEM + FBS for continuous cultures. Cell samples were collected at each time point starting at 0 (when the cell samples were collected immediately after the incubation step/baseline) followed by 4, 8, 12, 24, and 48 h.
(§2) For sorafenib-treated samples in cellular experiments, sorafenib processing and extraction of the samples were performed. HCC cell samples were re-suspended in PBS after which the organic solvent acetonitrile at a ratio of 1:1 was added. The samples were then crushed and extracted for about 30 min with vortex shaking. After that step, the samples were centrifuged at 12,000 rpm at 4 °C for about 15 to 20 min. At this time, the samples were separated into cell debris, organic, and water phases. The collected organic phase contained the sample of sorafenib in acetonitrile.
(§3) S transition pair was detected using LC–MS/MS: (1) the parent ion was 465 Da and (2) the product ion was 252 Da.
(§4) All statistical analyses in the presence work were performed using the GraphPad 8.0 (GraphPad Software Corporation, Armonk, NY, USA). […] For the survival analysis data, the survival curves were analyzed by the log-rank (Mantel–Cox) test to detect the P-value of the survival curve, the median survival time, and the 95% confidence interval (CI). For the co-relationship analysis, the data were analyzed by linear regression to determine the overall trend of a group of data points. […] If the slope was positive, the horizontal coordinate was positively related to the vertical coordinate, and if the slope was negative, the horizontal coordinate was negatively related to the vertical coordinate. For the multi-grouped data, the ordinary one-way analysis of variance (ANOVA) and multiple comparison methods were used. An ANOVA was used to examine whether any difference between groups could be detected. The multiple comparisons (t-test) was used to detect differences between pairs of data.

[2] = Sorafenib metabolism/clearance in subcutaneous tumor tissues, LC-MS/MS; assay type: in vivo, nude mice; settings: nude, mouse, read-out: t1/2 values (converted)
Procedure: (§5) For HCC subcutaneous tumor tissue, HCC cells were first cultured for transfection after which the cells were inoculated subcutaneously into nude mice to form tumor tissue. […] The HCC tumor tissues were collected at each time point described previously with the addition of 72 and 96 h.
(§6) During the extraction of sorafenib samples from HCC tissue samples, the tissue samples were shredded to form tissue micro-blocks and then ground with liquid nitrogen. The samples ground with liquid nitrogen were mixed with PBS and then mixed with the organic solvent acetonitrile at a ratio of 1:1. The samples were then crushed and extracted for about 30 min using vortex shaking. After that, the samples were centrifuged at 12,000 rpm and at 4 °C for about 15 to 20 min. At this time, the sample was separated into cell debris and organic and water phases.
as §3, §4

[3] = test system: subcutaneous tumor tissue formed by MHCC97-L cells; experiment: as above; assay type: in vivo, nude mice; settings: MHCC97-L subcutaneous tumour tissues, control group (rifampicin experiment)
Procedure: as §5, §6, §3, §4

[4] = Sorafenib metabolism/clearance in LS180 cells; assay type: in vitro ADME; settings: human, read-out: t1/2 values (converted)
LS180 cells = experiment: MTT cell survival examination; assay type: cell-based; settings: Homo sapiens
Procedure: The antitumor activity of antitumor drugs injuring HCC cells was examined by using MTT assay. After culturing the HCC cells, transfection experiments were performed, and the cells were then seeded in 96-well cell culture plates (about 8000 cells per well). […] After the cells were treated with the drug for about 48 h, a dose of […] tetrazolium (MTT) reagent was added, and cells with the MTT reagent were incubated for 5 to 6 h. After incubation with the MTT was complete, all liquid in the 96-well cell culture plate was discarded, and about 100 μl of DMSO was added to each well to dissolve the cell samples. During the process of lysing the cell samples, the cell culture plate was shaken for 15 minutes to completely lyse the cells. After the lysis step was complete, the cell culture plate was centrifuged at 12,000 rpm at 4 °C, and the supernatant was collected for evaluation.
as §4

advanced HCC patients = experiment: Prognosis of advanced HCC patients who received sorafenib, by TPX2 mRNA expression; assay type: in vivo, human; settings: advanced HCC patients on sorafenib
Procedure: The human-related experimental materials involved in this study consisted of mainly cDNA samples extracted from patient-derived HCC clinical specimens or the HCC cell lines. The cDNA samples were stored in a –80 °C refrigerator and stored in aliquots. […] Baseline information was detailed in our previous publications. The cell lines use in this study included various HCC cell lines (HepG2 [a HCC cell line], MHCC97-H [a highly aggressive HCC cell line], and MHCC97-L [a lowly aggressive HCC cell line]) and a PXR positive colorectal cancer line LS180. These cells were purchased from the National Infrastructure of Cell Resources of the Chinese Academy of Medical Sciences/China Union Medical College and descripted in our previous work.
All statistical analyses in the presence work were performed using the GraphPad 8.0 (GraphPad Software Corporation, Armonk, NY, USA). […] For the co-relationship analysis, the data were analyzed by linear regression to determine the overall trend of a group of data points. […] If the slope was positive, the horizontal coordinate was positively related to the vertical coordinate, and if the slope was negative, the horizontal coordinate was negatively related to the vertical coordinate. […] An ANOVA was used to examine whether any difference between groups could be detected. […]

[5] = test system: HCC cells (MHCC97-H, MHCC97-L, or HepG2); experiment: Sorafenib retention in cultured HCC cells, LC-MS/MS; assay type: in vitro ADME, human; settings: 48-h time point after 1 μmol/L incubation
Procedure: as §1, §2, §3

[6] = test system: HCC subcutaneous tumor tissues; experiment: Sorafenib retention in HCC subcutaneous tumor tissues, LC-MS/MS; assay type: in vivo, nude mice; settings: 72-h time point after intratumoral injection
Procedure: as §5, §6, §3

CNC(=O)c1cc(Oc2ccc(NC(=O)Nc3ccc(Cl)c(C(F)(F)F)c3)cc2)ccn1 [sorafenib]
half-life at 1 μmol/L ([1]; HepG2 cells, Control, median (95% CI), read-out: t1/2 values (converted)): 18.9 h | half-life at 1 μmol/L ([1]; HepG2 cells, TPX2 overexpression, median (95% CI), read-out: t1/2 values (converted)): 13.7 h | half-life at 1 μmol/L ([1]; HepG2 cells, siTPX2, read-out: t1/2 values (converted)): > 24 h | half-life at 1 μmol/L ([1]; MHCC97-H cells, Control, median (95% CI), read-out: t1/2 values (converted)): 15.5 h | half-life at 1 μmol/L ([1]; MHCC97-H cells, siTPX2, median (95% CI), read-out: t1/2 values (converted)): 36.6 h | half-life at 1 μmol/L ([1]; MHCC97-L cells, Control, median (95% CI), read-out: t1/2 values (converted)): 18.7 h | half-life at 1 μmol/L ([1]; MHCC97-L cells, TPX2 overexpression, median (95% CI), read-out: t1/2 values (converted)): 11.9 h | half-life ([2]; subcutaneous tumor tissue formed by HepG2 cells, Control, median (95% CI)): 29.4 h | half-life ([2]; subcutaneous tumor tissue formed by HepG2 cells, TPX2 overexpression, median (95% CI)): 18.5 h | half-life ([2]; subcutaneous tumor tissue formed by HepG2 cells, siTPX2, median (95% CI)): 42.2 h | half-life ([2]; subcutaneous tumor tissue formed by MHCC97-H cells, Control, median (95% CI)): 19.7 h | half-life ([2]; subcutaneous tumor tissue formed by MHCC97-H cells, siTPX2, median (95% CI)): 27.5 h | half-life ([2]; subcutaneous tumor tissue formed by MHCC97-L cells, MHCC97-L tumor tissues, Control, median (95% CI)): 28.3 h | half-life ([2]; subcutaneous tumor tissue formed by MHCC97-L cells, MHCC97-L tumor tissues, TPX2 overexpression, median (95% CI)): 13.5 h | half-life ([2]; subcutaneous tumor tissue formed by MHCC97-L cells, other: injected directly into the tumor tissue, MHCC97-L subcutaneous tumour tissues, TPX2 overexpression + rifampicin 5 mg/kg oral): 11.4 h | half-life ([2]; subcutaneous tumor tissue formed by MHCC97-L cells, other: injected directly into the tumor tissue, MHCC97-L subcutaneous tumour tissues, TPX2 overexpression group (rifampicin experiment)): 14 h | t1/2 values [3]: 29.70 [21.38–36.75] | half-life at 1 μmol/L ([4]; TPX2 knockdown): 32.7 h | half-life at 1 μmol/L ([4]; TPX2 overexpression): 12 h | half-life at 1 μmol/L ([4]; control of TPX2 knockdown experiment): 21.8 h | half-life at 1 μmol/L ([4]; control of TPX2 overexpression experiment): 21.3 h | IC50 (LS180 cells; LS180, LS180, TPX2 knockdown): 250 nM | IC50 (LS180 cells; LS180, LS180, TPX2 overexpression): 4300 nM | IC50 (LS180 cells; LS180, LS180, control group): 910 nM | TTP median value (advanced HCC patients; TPX2 mRNA High (n = 26)): 9.0 months | OS median value (advanced HCC patients; TPX2 mRNA Low (n = 26)): 16.0 months | metabolism and elimination in cultured HCC cells [5]: almost completely metabolized and eliminated | metabolism and elimination in HCC tissues [6]: almost completely metabolized and eliminated

Reference: publication PMC9883482, “TPX2 enhances the transcription factor activation of PXR and enhances the resistance of hepatocellular carcinoma cells to antitumor drugs” (Cell Death & Disease, 2023)
